One experiment concerns the target T1, HCV NS3 protease domain (Hepatitis C virus genotype 1b, UniProt Q9WMX2).
T1 construct: The first 181 amino acids of NS3 (residues 1027-1207 of the viral polyprotein); hexa-histidine (C); made in house; host or cells: E. coli BL21/DE3 pLysS
The experiment in a line: biochemical. Particulars: Enzyme Assay 1 (HCV NS3 Protease Domain Peptide Cleavage Assay) activity, apparent Ki class.

Experiment [1] has as its target T2, full-length hepatitis C viral protein NS3•4A (Hepatitis C virus genotype 1a, UniProt P27958).
T2 construct: hexa-histidine (N); made in house; host or cells: Sf9 insect cells (baculovirus, pVL1392)
The experiment in a line: biochemical. On the set-up: species or system HCV sub-type strain 1a. Particulars: Enzyme Assay 2 (HCV NS3 Peptide Cleavage Assay) activity, apparent Ki class.

Molecules are shown by their SMILES. Some results are limits rather than exact numbers.

Regarding `CCC[C@H](NC(=O)[C@@H]1C[C@]2(CC(c3cccc(Cl)c3)=NO2)CN1C(=O)[C@@H](NC(=O)[C@@H]1CCC(=O)N1Cc1cccs1)C(C)(C)C)C(=O)C(=O)NC1CC1` [Compound 30], the Ki at HCV NS3 protease domain was 0.1 to 0.5 µM; in experiment [1], below 0.1 µM.

Consider `CCC[C@H](NC(=O)[C@@H]1C[C@]2(CC(c3cccc4cccnc34)=NO2)CN1C(=O)[C@@H](NC(=O)CC1CCCCC1)C(C)(C)C)C(=O)C(=O)NC1CC1` [Compound 42], for which the Ki was 0.1 to 0.5 µM at HCV NS3 protease domain and below 0.1 µM in experiment [1].

Consider `C=C[C@@H]1C[C@]1(NC(=O)[C@@H]1C[C@]2(CC(c3cccc(Cl)c3)=NO2)CN1C(=O)[C@@H](NC(=O)OC1CCOC1)C(C)(C)C)C(=O)NS(=O)(=O)C1CC1` (some centres unmarked) [Compound 45], for which the values for the Ki (at HCV NS3 protease domain; in experiment [1]) were above 0.5 µM and 0.1 to 0.5 µM, respectively.

On to `CCC[C@H](NC(=O)[C@@H]1C[C@]2(CC(c3cccc(Cl)c3)=NO2)CN1C(=O)c1cc2cc(Br)ccc2[nH]1)C(=O)C(=O)NC1CC1` [Compound 46], for which the Ki (at HCV NS3 protease domain; in experiment [1]) was above 0.5 µM throughout.

For the molecule `CCC[C@H](NC(=O)[C@@H]1CC2(CC(c3cccc(Cl)c3)=NO2)CN1C(=O)[C@H](CCSCC)NC(C)=O)C(=O)C(=O)NC1CC1` (some centres unmarked) [Compound 54], the Ki is above 0.5 µM on HCV NS3 protease domain and 0.1 to 0.5 µM in experiment [1].

As to `CCC[C@H](NC(=O)[C@@H]1C[C@]2(CC(c3csc(Cl)c3)=NO2)CN1C(=O)[C@@H](NC(=O)CC1CCCCC1)C(C)(C)C)C(=O)C(=O)NC1CC1` [Compound 62], the Ki (at HCV NS3 protease domain; in experiment [1]) was 0.1 to 0.5 µM in each case.

With `CN(C)C(=O)C(=O)[C@H](CC1CCC1)NC(=O)[C@@H]1C[C@]2(CC(c3cccc(Cl)c3)=NO2)CN1C(=O)[C@@H](NC(=O)CC1CCCCC1)C(C)(C)C` [Compound 63], the Ki (on HCV NS3 protease domain; in experiment [1]) was above 0.5 µM each time.

Consider `CCC[C@H](NC(=O)[C@@H]1C[C@]2(CC(c3cccc(Cl)c3)=NO2)CN1C(=O)C1CCN(c2ccccc2)C1=O)C(=O)C(=O)NC1CC1` (some centres unmarked) [Compound 65], for which the Ki (on HCV NS3 protease domain; in experiment [1]) was above 0.5 µM in each case.

On to `CCOc1c(F)cc(C2=NO[C@]3(C2)C[C@@H](C(=O)N[C@@H](CC2CC2)C(=O)C(N)=O)N(C(=O)[C@@H](NC(=O)CC2CCOCC2)C(C)(C)C)C3)cc1Cl` [Compound 67], for which the Ki (at HCV NS3 protease domain; in experiment [1]) was below 0.1 µM each time.

For the molecule `CCC[C@H](NC(=O)[C@@H]1C[C@]2(CC(c3cccc(Cl)c3)=NO2)CN1C(=O)[C@@H](NC(=O)CC1CCCCC1)C(C)(C)C)C(=O)C(=O)NCCc1c[nH]c2cc(OC)ccc12` [Compound 69], the results for the Ki (at HCV NS3 protease domain; in experiment [1]) were above 0.5 µM and 0.1 to 0.5 µM, respectively.

Regarding `CCC[C@H](NC(=O)[C@@H]1C[C@]2(CC(c3cccc(Cl)c3)=NO2)CN1C(=O)[C@@H](NC(=O)CC1CCCCC1)C(C)(C)C)C(=O)C(=O)NCc1ccc(-n2cccn2)cc1` [Compound 73], the Ki on HCV NS3 protease domain is above 0.5 µM; in experiment [1], 0.1 to 0.5 µM.

Turning to `CCC[C@H](NC(=O)[C@@H]1C[C@]2(CC(c3cc(Cl)c4c(c3)CCC(C)(C)O4)=NO2)CN1C(=O)[C@@H](NC(=O)CC1CCCCC1)C(C)(C)C)C(=O)C(=O)NC1CC1` [Compound 74], the Ki on HCV NS3 protease domain is 0.1 to 0.5 µM; in experiment [1] it was below 0.1 µM.

`CCC[C@H](NC(=O)[C@@H]1C[C@]2(CC(c3cccc(Cl)c3)=NO2)CN1C(=O)[C@@H](NC(=O)CC1CCCCC1)C(C)(C)C)C(=O)C(=O)NCc1ccccc1` [Compound 77]: the Ki was 0.1 to 0.5 µM on HCV NS3 protease domain and below 0.1 µM in experiment [1].

With `CCC[C@H](NC(=O)[C@@H]1C[C@]2(CC(c3cccc(Cl)c3)=NO2)CN1C(=O)[C@@H](NC(=O)CC1CCCCC1)C(C)(C)C)C(=O)C(=O)N1CCC1` [Compound 79], the Ki at HCV NS3 protease domain was 0.1 to 0.5 µM; in experiment [1] it was below 0.1 µM.

`CCC[C@H](NC(=O)[C@@H]1C[C@]2(CC(c3cccc(Cl)c3)=NO2)CN1C(=O)[C@@H](NC(=O)CC1CCCCC1)C(C)(C)C)C(=O)C(=O)Nc1cc(OC)ccc1OC` [Compound 84]: the Ki (at HCV NS3 protease domain; in experiment [1]) was above 0.5 µM each time.

Turning to `CC(C)(C)[C@H](NC(=O)CC1CCOCC1)C(=O)N1C[C@@]2(CC(c3cccc(Cl)c3)=NO2)C[C@H]1C(=O)NC(CC1CCC1)C(=O)C(=O)NC1CC1` (some centres unmarked) [Compound 87], the Ki (on HCV NS3 protease domain; in experiment [1]) was 0.1 to 0.5 µM throughout.

As for `CCC[C@H](NC(=O)[C@@H]1CC2(CC(c3cccc(Cl)c3)=NO2)CN1C(=O)[C@H](Cc1ccc(OC)cc1)NC(C)=O)C(=O)C(=O)NC1CC1` (some centres unmarked) [Compound 88], the Ki at HCV NS3 protease domain was above 0.5 µM; in experiment [1], 0.1 to 0.5 µM.

For the molecule `CCC[C@H](NC(=O)[C@@H]1C[C@]2(CC(c3cccc(Cl)c3)=NO2)CN1C(=O)[C@@H](NC(=O)CC1CCCCC1)C(C)(C)C)C(=O)C(=O)NCC1(c2ccc(OC)cc2)CCOCC1` [Compound 91], the Ki (on HCV NS3 protease domain; in experiment [1]) was above 0.5 µM in each case.

`CCC[C@H](NC(=O)[C@@H]1C[C@]2(CC(c3cccc(Cl)c3)=NO2)CN1C(=O)[C@@H](NC(=O)C1CCCCC1)C(C)(C)C)C(=O)C(=O)NC1CC1` [Compound 93]: the Ki on HCV NS3 protease domain was 0.1 to 0.5 µM; in experiment [1], below 0.1 µM.

`CCC[C@H](NC(=O)[C@@H]1C[C@]2(CC(c3cccc(Cl)c3)=NO2)CN1C(=O)[C@@H](NC(=O)CC1CCCCC1)C(C)(C)C)C(=O)C(=O)Nc1ccc(C)c(C#N)c1` [Compound 96]: the Ki was above 0.5 µM at HCV NS3 protease domain and 0.1 to 0.5 µM in experiment [1].

As for `CCC[C@H](NC(=O)[C@@H]1C[C@]2(CC(c3cccc(Cl)c3)=NO2)CN1C(=O)[C@H](CC(C)C)NC(C)=O)C(=O)C(=O)NC1CC1` [Compound 98], the Ki at HCV NS3 protease domain was above 0.5 µM; in experiment [1] it was 0.1 to 0.5 µM.

Take `CCC[C@H](NC(=O)[C@@H]1C[C@]2(CC(c3cccc(Cl)c3)=NO2)CN1C(=O)[C@@H](NC(=O)CC1CCCCC1)C(C)(C)C)C(=O)C(=O)NC1CCCCC1` [Compound 99]: the Ki (on HCV NS3 protease domain; in experiment [1]) was above 0.5 µM each time.

For `CCC[C@H](NC(=O)[C@@H]1C[C@]2(CC(c3cccc(Cl)c3)=NO2)CN1C(=O)C(NS(=O)(=O)c1ccc(F)cc1)C(C)C)C(=O)C(=O)NC1CC1` (some centres unmarked) [Compound 100], the Ki (at HCV NS3 protease domain; in experiment [1]) was above 0.5 µM throughout.

As for `CCC[C@H](NC(=O)[C@@H]1C[C@@]2(CC(c3cc(C)c(OC)c(Cl)c3)=NO2)CN1C(=O)[C@@H](NC(=O)CC1CCCCC1)C(C)(C)C)C(=O)C(=O)NC1CC1` [Compound 111], the Ki (at HCV NS3 protease domain; in experiment [1]) was 0.1 to 0.5 µM in each case.

For `CCC[C@H](NC(=O)[C@@H]1C[C@]2(CC(c3cccc(Cl)c3)=NO2)CN1C(=O)[C@H](NC(=O)CC1CCCCC1)C(C)(C)C)C(=O)C(=O)N(CC)CC` [Compound 113], the Ki (at HCV NS3 protease domain; in experiment [1]) was above 0.5 µM each time.

As to `C=C[C@@H]1C[C@]1(NC(=O)[C@@H]1C[C@]2(CC(c3cccc(Cl)c3)=NO2)CN1C(=O)[C@@H](NC(=O)CC1CCCCC1)C(C)(C)C)C(=O)NS(=O)(=O)NC1CC1` [Compound 115], the Ki on HCV NS3 protease domain is above 0.5 µM; in experiment [1], 0.1 to 0.5 µM.

Consider `CCC[C@H](NC(=O)[C@@H]1C[C@]2(CC(C(=O)c3ccccc3)=NO2)CN1C(=O)[C@@H](NC(=O)NC(C)(C)C)C(C)(C)C)C(=O)C(=O)NC1CC1` [Compound 119], for which the Ki (at HCV NS3 protease domain; in experiment [1]) was 0.1 to 0.5 µM each time.

Regarding `CCC[C@H](NC(=O)[C@@H]1C[C@]2(CC(c3cccc(Cl)c3)=NO2)CN1C(=O)[C@@H](NC(=O)CC1CCCCC1)C(C)(C)C)C(=O)C(=O)NC(c1ccccc1)c1ccccn1` (some centres unmarked) [Compound 120], the Ki (on HCV NS3 protease domain; in experiment [1]) was above 0.5 µM throughout.

For `CCC[C@H](NC(=O)[C@@H]1C[C@]2(CC(c3cccc(Cl)c3)=NO2)CN1C(=O)[C@@H](NC(=O)CC1CCOC(C)(C)C1)C(C)(C)C)C(=O)C(=O)NC1CC1` (some centres unmarked) [Compound 121], the Ki was 0.1 to 0.5 µM on HCV NS3 protease domain and below 0.1 µM in experiment [1].

Turning to `CCC[C@H](NC(=O)[C@@H]1C[C@]2(CC(c3cccc(Cl)c3)=NO2)CN1C(=O)[C@@H](NC(=O)CC1CCCCC1)C(C)OC)C(=O)C(=O)NC1CC1` (some centres unmarked) [Compound 124], the Ki is above 0.5 µM on HCV NS3 protease domain and 0.1 to 0.5 µM in experiment [1].

On to `CCC[C@H](NC(=O)[C@@H]1C[C@]2(CC(c3cccc(Cl)c3)=NO2)CN1C(=O)[C@@H](NC(=O)CC1CCCCC1)[C@@H](C)c1ccccc1)C(=O)C(=O)NC1CC1` [Compound 125], for which the Ki (on HCV NS3 protease domain; in experiment [1]) was 0.1 to 0.5 µM in each case.

On to `CCC[C@H](NC(=O)[C@@H]1C[C@]2(CC(c3cccc(Cl)c3)=NO2)CN1C(=O)[C@@H](NC(=O)CC1CCCCC1)C(C)(C)C)C(=O)C(=O)NCc1cc(OC)cc(OC)c1` [Compound 127], for which the Ki (on HCV NS3 protease domain; in experiment [1]) was 0.1 to 0.5 µM in each case.

For the molecule `C=CCOC(=O)N[C@H](C(=O)N1C[C@@]2(CC(c3cccc(Cl)c3)=NO2)C[C@H]1C(=O)N[C@]1(C(=O)NS(=O)(=O)C2CC2)C[C@H]1C=C)C(C)(C)C` [Compound 130], the Ki was 0.1 to 0.5 µM on HCV NS3 protease domain and below 0.1 µM in experiment [1].

For the molecule `CC(C)(C)[C@H](NC(=O)CC1CCCCC1)C(=O)N1C[C@@]2(CC(c3cncc(Cl)c3)=NO2)C[C@H]1C(=O)NC(CC1CCC1)C(=O)C(=O)NC1CC1` (some centres unmarked) [Compound 132], the Ki (on HCV NS3 protease domain; in experiment [1]) was 0.1 to 0.5 µM in each case.

Turning to `CCC[C@H](NC(=O)[C@@H]1C[C@]2(CC(c3cccc(Cl)c3)=NO2)CN1C(=O)[C@@H](NC(=O)CC1CCCCC1)C(C)(C)C)C(=O)C(=O)N1CC(OCC)C1` [Compound 133], the Ki (at HCV NS3 protease domain; in experiment [1]) was 0.1 to 0.5 µM each time.

For `CCC[C@H](NC(=O)[C@@H]1C[C@]2(CC(c3cc(Cl)cc4c3OCC4)=NO2)CN1C(=O)[C@@H](NC(=O)CC1CCCCC1)C(C)(C)C)C(=O)C(=O)NC1CC1` [Compound 134], the Ki at HCV NS3 protease domain is 0.1 to 0.5 µM; in experiment [1] it was below 0.1 µM.

For the molecule `CCC[C@H](NC(=O)[C@@H]1C[C@]2(CC(c3cc(F)c(OCC)c(Cl)c3)=NO2)CN1C(=O)[C@@H](NC(=O)CC1CCCCC1)C(C)(C)C)C(=O)C(=O)NC1CC1` [Compound 136], the Ki (at HCV NS3 protease domain; in experiment [1]) was 0.1 to 0.5 µM each time.

For the origin of these results see US7964624B1, “Inhibitors of serine proteases” (priority 2005, dated 2011).
